Results reported in patent US8367840B2, “Composition for treating infectious diseases caused by Helicobacter” (Universidad de Zaragoza, priority 2007, dated 2013).

Tests used:
[1] = molecular target: T1, H. pylori flavodoxin (Helicobacter pylori, UniProt O25776); assay: Inhibition of the pyruvate/PFOR/flavodoxin/FqrB/NADP+ electron transfer reaction (NADPH formation at 340 nm); format: biochemical; conditions: 50 μM compound; anaerobic; 10 μM Fld, 0.09 mg/ml PFOR, 0.15 μM FqrB; FIG. 1
T1 construct: made in house; host or cells: E. coli BL21 (flavodoxin, pET28a); E. coli JVQ2 (PFOR, pBS(KS)); E. coli BL21(DE3) (FqrB, pET29b)
T1 sequence (O25776 1-164): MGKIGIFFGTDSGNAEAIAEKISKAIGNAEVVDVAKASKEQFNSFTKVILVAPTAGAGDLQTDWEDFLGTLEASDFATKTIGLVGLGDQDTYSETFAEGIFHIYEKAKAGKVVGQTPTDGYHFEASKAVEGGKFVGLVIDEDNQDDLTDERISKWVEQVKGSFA
Source text: Measurement of the absorbance (A) (AU is the unit of absorbance) at 340 nm against time (t) in seconds (s).
Flavodoxin is an essential protein for Helicobacter pylori survival as it participates in a fundamental reaction for obtaining energy from the oxidative decarboxylation of pyruvate. In this reaction, flavodoxin transfers electrons between the PFOR enzyme and the FqrB enzyme, which releases them to NADP^+.
The sequential reaction of electron transfer between pyruvate, PFOR, flavodoxin, FqrB and NADP^+ (activity assay) was followed spectroscopically by the appearance of the signal at 340 nm with the formation of NADPH. The reaction mixture contained 100 mM potassium phosphate pH 7, 10 mM pyruvate, 0.18 mM CoA, 1 mM MgCl, 0.3 mM NADP^+, 0.09 mg/ml PFOR, 10 μM Fld and 0.15 μM FqrB. The mixture, except CoA, was placed in a cuvette specially designed for anaerobic conditions. Oxygen was removed by means of 5 minute cycles with alternate flows of vacuum and argon. The reaction was started by the addition of 0.18 mM coenzyme A (CoA) that was held in a compartment inside the same cuvette. The reaction completed 15 minutes after adding the CoA reagent.
The inhibition assays were carried out in the same conditions as the activity assays previously described, adding an additional 50 μM of the disclosed compound of the general formula shown in (II) to the reaction cuvette.

[2] = molecular target: T2, flavodoxin of H. pylori (Helicobacter pylori, UniProt O25776); assay: Binding to flavodoxin by isothermal titration calorimetry (ITC); conditions: 50 mM EPPS buffer, pH 9, 7% DMSO, protein around 20 μM, read-out: affinity for flavodoxin
T2 construct: made in house; host or cells: E. coli BL21
Method: The specific binding of the inhibitors of the present invention to flavodoxin of H. pylori was confirmed by isothermal titration calorimetry (ITC). This technique not only measures the affinity of each compound for the target protein, but also determines the contribution of the enthalpic and entropic components of binding.
The binding experiments were carried out in 50 mM EPPS buffer, pH 9 with 7% DMSO, with the inhibitor in the injection syringe at a concentration of 300-500 μM, and the protein around 20 μM in the measurement cell.

`COc1ccc(CSc2ccc([N+](=O)[O-])c3nonc23)cc1` [formula (II)] was tested, and the “inhibition of NADPH formation (product formation curve, absorbance at 340 nm)” value [1] was “almost total” and the Kd [2] was 3 µM.
